Measured values as given in article PMC9532703, “A novel small molecule RK-019 inhibits FGFR2-amplification gastric cancer cell proliferation and induces apoptosis in vitro and in vivo” (Frontiers in Pharmacology, 2022).
pIC50: −log10 of the molar value. Values joined by “and” are separate entries in the source; they are usually repeats but may differ in a detail not shown here. Equal values may be shown once.

Columns and labels:
Format in all cases: biochemical
[1] = molecular target: T1, ATR/ATRIP(h) (Homo sapiens, UniProt Q13535); assay: Kinase selectivity panel; settings: read-out: Inhibition(%) @ 1 µM RK-019
T1 construct: purchased Eurofins Discovery Services (KinaseProfiler)
Description: (§1) Median-inhibitory concentration (IC50) and inhibition ratio of kinases by RK-019 was assessed by Eurofins Discovery Services (Dundee, United Kingdom) using the ATP-site competition binding assay in vitro. Firstly, gradient concentration of RK-019 against FGFRs, including FGFR1, FGFR2, FGFR3, and FGFR4, were tested. IC50 value was calculate by the GraphPad Prism software (v8.4.3, GraphPad Software, California, United States). Then, to measure the selectivity prolife of RK-019, a panel of 422 recombinant human kinases was screened at a concentration of 1 µM RK-019. Kinase MAP was drawn by webtools from Cell Signaling Technology, Inc. (www.cellsignal.com).

[2] = molecular target: T2, Abl(T315I)(h) (Homo sapiens, UniProt P00519, T315I); assay: Kinase selectivity panel; settings: read-out: Inhibition(%) @ 1 µM RK-019
T2 construct: purchased Eurofins Discovery Services (KinaseProfiler)
Description: as §1

[3] = molecular target: T3, CDK17/cyclinY(h) (Homo sapiens, UniProt Q00537); assay: Kinase selectivity panel; settings: read-out: Inhibition(%) @ 1 µM RK-019
T3 construct: purchased Eurofins Discovery Services (KinaseProfiler)
Description: as §1

[4] = molecular target: T4, CDK5/p25(h) (Homo sapiens, UniProt Q00535); assay: Kinase selectivity panel; settings: read-out: Inhibition(%) @ 1 µM RK-019
T4 construct: purchased Eurofins Discovery Services (KinaseProfiler)
Description: as §1

[5] = molecular target: T5, CHK2(R145W)(h) (Homo sapiens, UniProt O96017, R145W); assay: Kinase selectivity panel; settings: read-out: Inhibition(%) @ 1 µM RK-019
T5 construct: purchased Eurofins Discovery Services (KinaseProfiler)
Description: as §1

[6] = molecular target: T6, CK1δ(h) (Homo sapiens, UniProt P48730); assay: Kinase selectivity panel; settings: read-out: Inhibition(%) @ 1 µM RK-019
T6 construct: purchased Eurofins Discovery Services (KinaseProfiler)
Description: as §1

[7] = molecular target: T7, Flt1(h) (Homo sapiens, UniProt P17948); assay: Kinase selectivity panel; settings: read-out: Inhibition(%) @ 1 µM RK-019
T7 construct: purchased Eurofins Discovery Services (KinaseProfiler)
Description: as §1

[8] = molecular target: T8, Flt3(D835Y)(h) (Homo sapiens, UniProt P36888, D835Y); assay: Kinase selectivity panel; settings: read-out: Inhibition(%) @ 1 µM RK-019
T8 construct: purchased Eurofins Discovery Services (KinaseProfiler)
Description: as §1

[9] = molecular target: T9, GCN2(h) (Homo sapiens, UniProt Q9P2K8); assay: Kinase selectivity panel; settings: read-out: Inhibition(%) @ 1 µM RK-019
T9 construct: purchased Eurofins Discovery Services (KinaseProfiler)
Description: as §1

[10] = molecular target: T10, GRK1(h) (Homo sapiens, UniProt Q15835); assay: Kinase selectivity panel; settings: read-out: Inhibition(%) @ 1 µM RK-019
T10 construct: purchased Eurofins Discovery Services (KinaseProfiler)
Description: as §1

[11] = molecular target: T11, Hck(h) activated (Homo sapiens, UniProt P08631); assay: Kinase selectivity panel; settings: read-out: Inhibition(%) @ 1 µM RK-019
T11 construct: purchased Eurofins Discovery Services (KinaseProfiler)
Description: as §1

[12] = molecular target: T12, IRAK4(h) (Homo sapiens, UniProt Q9NWZ3); assay: Kinase selectivity panel; settings: read-out: Inhibition(%) @ 1 µM RK-019
T12 construct: purchased Eurofins Discovery Services (KinaseProfiler)
Description: as §1

[13] = molecular target: T13, JNK1α1(h) (Homo sapiens, UniProt P45983); assay: Kinase selectivity panel; settings: read-out: Inhibition(%) @ 1 µM RK-019
T13 construct: purchased Eurofins Discovery Services (KinaseProfiler)
Description: as §1

[14] = molecular target: T14, MARK1(h) (Homo sapiens, UniProt Q9P0L2); assay: Kinase selectivity panel; settings: read-out: Inhibition(%) @ 1 µM RK-019
T14 construct: purchased Eurofins Discovery Services (KinaseProfiler)
Description: as §1

[15] = molecular target: T15, Mer(h) (Homo sapiens, UniProt Q12866); assay: Kinase selectivity panel; settings: read-out: Inhibition(%) @ 1 µM RK-019
T15 construct: purchased Eurofins Discovery Services (KinaseProfiler)
Description: as §1

[16] = molecular target: T16, Met(Y1248C)(h) (Homo sapiens, UniProt P08581, Y1230C); assay: Kinase selectivity panel; settings: read-out: Inhibition(%) @ 1 µM RK-019
T16 construct: purchased Eurofins Discovery Services (KinaseProfiler)
Description: as §1

[17] = molecular target: T17, NEK3(h) (Homo sapiens, UniProt P51956); assay: Kinase selectivity panel; settings: read-out: Inhibition(%) @ 1 µM RK-019
T17 construct: purchased Eurofins Discovery Services (KinaseProfiler)
Description: as §1

[18] = molecular target: T18, NLK(h) (Homo sapiens, UniProt Q9UBE8); assay: Kinase selectivity panel; settings: read-out: Inhibition(%) @ 1 µM RK-019
T18 construct: purchased Eurofins Discovery Services (KinaseProfiler)
Description: as §1

[19] = molecular target: T19, PI3 Kinase (p110b/p85a)(m) (Mus musculus, UniProt Q8BTI9); assay: Kinase selectivity panel; settings: read-out: Inhibition(%) @ 1 µM RK-019
T19 construct: purchased Eurofins Discovery Services (KinaseProfiler)
Description: as §1

[20] = molecular target: T20, PKAcβ(h) (Homo sapiens, UniProt P22694); assay: Kinase selectivity panel; settings: read-out: Inhibition(%) @ 1 µM RK-019
T20 construct: purchased Eurofins Discovery Services (KinaseProfiler)
Description: as §1

[21] = molecular target: T21, PKCα(h) (Homo sapiens, UniProt P17252); assay: Kinase selectivity panel; settings: read-out: Inhibition(%) @ 1 µM RK-019
T21 construct: purchased Eurofins Discovery Services (KinaseProfiler)
Description: as §1

[22] = molecular target: T22, PhKγ1(h) (Homo sapiens, UniProt Q16816); assay: Kinase selectivity panel; settings: read-out: Inhibition(%) @ 1 µM RK-019
T22 construct: purchased Eurofins Discovery Services (KinaseProfiler)
Description: as §1

[23] = molecular target: T23, SGK(h) (Homo sapiens, UniProt O00141); assay: Kinase selectivity panel; settings: read-out: Inhibition(%) @ 1 µM RK-019
T23 construct: purchased Eurofins Discovery Services (KinaseProfiler)
Description: as §1

[24] = molecular target: T24, STK32B(h) (Homo sapiens, UniProt Q9NY57); assay: Kinase selectivity panel; settings: read-out: Inhibition(%) @ 1 µM RK-019
T24 construct: purchased Eurofins Discovery Services (KinaseProfiler)
Description: as §1

[25] = molecular target: T25, Snk(h) (Homo sapiens, UniProt Q9NYY3); assay: Kinase selectivity panel; settings: read-out: Inhibition(%) @ 1 µM RK-019
T25 construct: purchased Eurofins Discovery Services (KinaseProfiler)
Description: as §1

[26] = molecular target: T26, TrkB(h) (Homo sapiens, UniProt Q16620); assay: Kinase selectivity panel; settings: read-out: Inhibition(%) @ 1 µM RK-019
T26 construct: purchased Eurofins Discovery Services (KinaseProfiler)
Description: as §1

[27] = molecular target: T27, ULK1(h) (Homo sapiens, UniProt O75385); assay: Kinase selectivity panel; settings: read-out: Inhibition(%) @ 1 µM RK-019
T27 construct: purchased Eurofins Discovery Services (KinaseProfiler)
Description: as §1

[28] = molecular target: T28, cKit(V654A)(h) (Homo sapiens, UniProt P10721, V654A); assay: Kinase selectivity panel; settings: read-out: Inhibition(%) @ 1 µM RK-019
T28 construct: purchased Eurofins Discovery Services (KinaseProfiler)
Description: as §1

[29] = molecular target: T29, Rsk1(r) (Rattus norvegicus, UniProt Q63531); assay: Kinase selectivity panel; settings: read-out: Inhibition(%) @ 1 µM RK-019
T29 construct: purchased Eurofins Discovery Services (KinaseProfiler)

[30] = molecular target: T30, FGFR1 (Homo sapiens, UniProt P11362); assay: Kinase inhibition IC50 assay (Eurofins)
T30 construct: purchased Eurofins Discovery Services (Dundee, United Kingdom)
Description: as §1
(§2) All data were analyzed by the GraphPad Prism 8.4.3 (GraphPad Software, California, United States), and was shown as mean value ±SD or SEM, details will be illustrated in the figure legends. Dose-effect curve analysis (IC50 calculation) was performed by the Graphpad Prism software. First, concentration value was converted to log value, followed by non-linear regression analyze which is log(inhibitor) vs. normalized response—Variable slope, was performed to calculate the IC50 values. The statistically significant p values were calculated by student’s t-test or two-way ANOVA and were shown in graphics which were labeled as follows: *p < 0.05; **p < 0.01; ***p < 0.001.

[31] = molecular target: T31, FGFR2 (Homo sapiens, UniProt P21802); assay: Kinase inhibition IC50 assay (Eurofins)
T31 construct: purchased Eurofins Discovery Services (Dundee, United Kingdom)
Description: as §1, §2

[32] = molecular target: T32, FGFR3 (Homo sapiens, UniProt P22607); assay: Kinase inhibition IC50 assay (Eurofins)
T32 construct: purchased Eurofins Discovery Services (Dundee, United Kingdom)
Description: as §1, §2

[33] = molecular target: T33, FGFR4 (Homo sapiens, UniProt P22455); assay: Kinase inhibition IC50 assay (Eurofins)
T33 construct: purchased Eurofins Discovery Services (Dundee, United Kingdom)
Description: as §1, §2

T30 sequence (P11362 22-822): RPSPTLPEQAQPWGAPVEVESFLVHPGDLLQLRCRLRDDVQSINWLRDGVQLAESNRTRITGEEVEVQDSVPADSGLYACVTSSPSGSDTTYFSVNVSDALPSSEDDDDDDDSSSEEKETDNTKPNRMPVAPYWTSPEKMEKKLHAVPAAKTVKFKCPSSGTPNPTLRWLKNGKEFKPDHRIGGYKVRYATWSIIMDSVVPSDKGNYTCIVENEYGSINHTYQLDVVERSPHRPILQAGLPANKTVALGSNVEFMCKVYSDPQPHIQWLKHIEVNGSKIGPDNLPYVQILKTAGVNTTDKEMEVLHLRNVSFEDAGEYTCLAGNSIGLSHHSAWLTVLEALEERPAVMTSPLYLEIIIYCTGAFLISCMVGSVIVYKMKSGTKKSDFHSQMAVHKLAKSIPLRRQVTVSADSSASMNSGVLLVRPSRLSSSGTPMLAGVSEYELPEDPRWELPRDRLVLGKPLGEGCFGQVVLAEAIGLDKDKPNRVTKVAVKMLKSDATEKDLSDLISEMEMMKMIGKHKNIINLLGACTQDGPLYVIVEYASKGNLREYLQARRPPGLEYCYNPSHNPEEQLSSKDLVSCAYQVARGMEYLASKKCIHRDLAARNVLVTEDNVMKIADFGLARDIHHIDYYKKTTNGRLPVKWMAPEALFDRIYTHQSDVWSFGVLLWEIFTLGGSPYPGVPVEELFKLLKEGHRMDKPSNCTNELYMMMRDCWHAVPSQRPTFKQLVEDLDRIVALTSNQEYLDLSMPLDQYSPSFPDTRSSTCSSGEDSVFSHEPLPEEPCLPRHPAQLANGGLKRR
T7 sequence (P17948 27-1338): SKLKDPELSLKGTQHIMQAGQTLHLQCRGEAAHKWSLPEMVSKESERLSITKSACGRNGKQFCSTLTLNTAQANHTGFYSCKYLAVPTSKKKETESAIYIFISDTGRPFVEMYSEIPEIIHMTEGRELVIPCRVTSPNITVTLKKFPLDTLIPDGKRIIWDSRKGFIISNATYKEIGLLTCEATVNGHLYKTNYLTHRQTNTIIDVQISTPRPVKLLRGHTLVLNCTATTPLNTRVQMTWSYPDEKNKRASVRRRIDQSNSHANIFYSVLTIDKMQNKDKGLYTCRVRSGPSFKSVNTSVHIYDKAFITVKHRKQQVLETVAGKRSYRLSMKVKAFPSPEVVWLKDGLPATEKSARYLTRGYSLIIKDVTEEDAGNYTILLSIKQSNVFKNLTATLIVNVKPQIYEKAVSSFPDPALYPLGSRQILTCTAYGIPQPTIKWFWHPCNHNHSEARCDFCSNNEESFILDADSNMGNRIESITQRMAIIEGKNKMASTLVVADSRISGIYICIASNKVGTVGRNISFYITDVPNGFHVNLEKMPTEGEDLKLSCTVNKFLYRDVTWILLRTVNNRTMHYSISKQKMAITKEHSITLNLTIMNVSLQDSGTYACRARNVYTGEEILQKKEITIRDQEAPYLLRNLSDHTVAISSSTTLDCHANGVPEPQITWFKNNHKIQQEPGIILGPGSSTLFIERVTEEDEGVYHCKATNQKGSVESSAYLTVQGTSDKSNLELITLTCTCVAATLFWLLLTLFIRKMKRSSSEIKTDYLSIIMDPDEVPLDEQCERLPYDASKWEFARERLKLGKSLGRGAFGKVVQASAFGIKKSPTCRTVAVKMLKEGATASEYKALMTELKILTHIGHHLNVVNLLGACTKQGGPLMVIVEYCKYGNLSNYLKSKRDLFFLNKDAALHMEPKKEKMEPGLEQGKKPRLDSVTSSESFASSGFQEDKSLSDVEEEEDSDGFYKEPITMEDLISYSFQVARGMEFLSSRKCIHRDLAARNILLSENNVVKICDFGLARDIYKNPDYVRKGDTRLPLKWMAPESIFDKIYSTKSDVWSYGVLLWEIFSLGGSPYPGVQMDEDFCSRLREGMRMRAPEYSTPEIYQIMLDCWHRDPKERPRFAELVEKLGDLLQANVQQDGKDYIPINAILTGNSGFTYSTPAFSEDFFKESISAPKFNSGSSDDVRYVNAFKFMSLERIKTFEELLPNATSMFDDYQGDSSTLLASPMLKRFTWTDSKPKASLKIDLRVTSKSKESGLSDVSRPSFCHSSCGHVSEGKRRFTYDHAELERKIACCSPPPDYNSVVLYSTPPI
T25 sequence (Q9NYY3 whole entry): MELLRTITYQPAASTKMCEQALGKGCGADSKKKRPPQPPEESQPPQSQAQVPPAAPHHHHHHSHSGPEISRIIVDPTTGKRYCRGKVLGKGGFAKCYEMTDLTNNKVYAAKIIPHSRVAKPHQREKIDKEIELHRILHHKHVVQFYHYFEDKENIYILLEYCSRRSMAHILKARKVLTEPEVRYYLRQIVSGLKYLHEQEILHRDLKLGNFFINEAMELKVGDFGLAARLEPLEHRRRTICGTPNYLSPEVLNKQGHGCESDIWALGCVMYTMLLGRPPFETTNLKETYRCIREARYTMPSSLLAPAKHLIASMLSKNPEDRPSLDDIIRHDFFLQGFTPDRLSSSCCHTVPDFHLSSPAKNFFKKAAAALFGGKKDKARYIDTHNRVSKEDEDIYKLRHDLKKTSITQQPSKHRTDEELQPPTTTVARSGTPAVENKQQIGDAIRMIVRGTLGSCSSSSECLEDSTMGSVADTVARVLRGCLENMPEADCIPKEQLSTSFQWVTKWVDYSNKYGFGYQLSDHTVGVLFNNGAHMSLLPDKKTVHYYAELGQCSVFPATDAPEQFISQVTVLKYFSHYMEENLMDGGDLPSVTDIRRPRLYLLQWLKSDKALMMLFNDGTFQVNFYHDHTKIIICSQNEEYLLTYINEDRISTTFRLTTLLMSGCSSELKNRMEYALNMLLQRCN
T24 sequence (Q9NY57 whole entry): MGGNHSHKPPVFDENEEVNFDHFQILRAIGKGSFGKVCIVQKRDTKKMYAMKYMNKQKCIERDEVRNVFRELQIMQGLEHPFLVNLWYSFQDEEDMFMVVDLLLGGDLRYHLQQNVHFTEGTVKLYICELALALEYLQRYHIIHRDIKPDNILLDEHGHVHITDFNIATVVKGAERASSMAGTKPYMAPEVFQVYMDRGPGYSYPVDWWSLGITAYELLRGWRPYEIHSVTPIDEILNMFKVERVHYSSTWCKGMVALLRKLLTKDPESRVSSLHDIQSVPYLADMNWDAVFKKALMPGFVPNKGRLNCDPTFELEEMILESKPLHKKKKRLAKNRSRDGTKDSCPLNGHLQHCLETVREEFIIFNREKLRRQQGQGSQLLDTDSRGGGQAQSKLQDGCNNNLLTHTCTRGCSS
T3 sequence (Q00537 whole entry): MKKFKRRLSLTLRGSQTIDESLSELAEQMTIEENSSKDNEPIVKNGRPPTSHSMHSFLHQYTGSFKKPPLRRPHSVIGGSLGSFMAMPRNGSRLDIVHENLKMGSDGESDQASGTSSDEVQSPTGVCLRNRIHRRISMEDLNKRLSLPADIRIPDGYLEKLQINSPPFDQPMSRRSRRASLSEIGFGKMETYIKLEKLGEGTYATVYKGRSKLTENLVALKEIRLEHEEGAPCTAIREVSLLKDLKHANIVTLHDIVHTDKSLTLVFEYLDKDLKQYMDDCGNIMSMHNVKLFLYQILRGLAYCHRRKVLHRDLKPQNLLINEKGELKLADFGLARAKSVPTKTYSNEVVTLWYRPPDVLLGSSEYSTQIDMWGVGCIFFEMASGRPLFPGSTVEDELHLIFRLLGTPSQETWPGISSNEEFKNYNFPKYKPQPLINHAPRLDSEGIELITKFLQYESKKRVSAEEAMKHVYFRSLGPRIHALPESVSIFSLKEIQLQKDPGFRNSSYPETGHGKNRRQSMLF
T3 sequence (Q8ND76 whole entry partner): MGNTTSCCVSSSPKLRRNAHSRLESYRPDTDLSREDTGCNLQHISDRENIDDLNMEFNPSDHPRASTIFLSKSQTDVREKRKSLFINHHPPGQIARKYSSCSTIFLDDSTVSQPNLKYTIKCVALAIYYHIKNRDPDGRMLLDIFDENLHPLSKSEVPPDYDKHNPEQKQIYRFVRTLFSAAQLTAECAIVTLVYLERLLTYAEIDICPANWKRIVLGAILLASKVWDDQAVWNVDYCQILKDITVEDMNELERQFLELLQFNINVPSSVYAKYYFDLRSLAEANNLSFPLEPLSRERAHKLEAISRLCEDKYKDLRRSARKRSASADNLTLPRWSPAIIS
T17 sequence (P51956 whole entry): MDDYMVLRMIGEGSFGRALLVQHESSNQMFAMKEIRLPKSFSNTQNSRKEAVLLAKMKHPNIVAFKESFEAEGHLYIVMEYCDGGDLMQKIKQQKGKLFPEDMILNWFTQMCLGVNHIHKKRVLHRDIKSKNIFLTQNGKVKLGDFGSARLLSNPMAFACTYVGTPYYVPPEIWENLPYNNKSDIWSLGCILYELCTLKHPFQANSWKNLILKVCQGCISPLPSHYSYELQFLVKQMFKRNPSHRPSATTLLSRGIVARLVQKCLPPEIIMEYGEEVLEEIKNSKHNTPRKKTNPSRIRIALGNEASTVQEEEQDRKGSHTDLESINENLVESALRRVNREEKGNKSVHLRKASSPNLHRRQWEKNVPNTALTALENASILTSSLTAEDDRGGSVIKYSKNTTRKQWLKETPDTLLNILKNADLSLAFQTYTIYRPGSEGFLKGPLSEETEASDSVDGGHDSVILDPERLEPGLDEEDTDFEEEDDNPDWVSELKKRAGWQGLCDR
T12 sequence (Q9NWZ3 whole entry): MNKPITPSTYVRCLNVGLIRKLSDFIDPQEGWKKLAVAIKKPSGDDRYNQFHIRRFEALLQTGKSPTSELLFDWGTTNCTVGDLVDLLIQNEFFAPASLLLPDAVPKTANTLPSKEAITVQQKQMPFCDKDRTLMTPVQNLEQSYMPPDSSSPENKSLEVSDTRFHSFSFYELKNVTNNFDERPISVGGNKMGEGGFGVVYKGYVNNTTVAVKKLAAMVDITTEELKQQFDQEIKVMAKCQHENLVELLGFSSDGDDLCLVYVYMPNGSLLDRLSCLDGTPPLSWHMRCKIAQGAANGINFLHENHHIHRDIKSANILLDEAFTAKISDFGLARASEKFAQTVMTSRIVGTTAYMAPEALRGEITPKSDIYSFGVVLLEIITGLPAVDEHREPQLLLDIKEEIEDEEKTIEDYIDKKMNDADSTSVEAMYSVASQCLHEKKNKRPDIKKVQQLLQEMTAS

With `COc1cc(OC)cc(N(CCN[C@H](C)CO)c2ccc3ncc(-c4cnn(C)c4)c(=O)n3c2)c1` [RK-019, (R)-7-((3,5-dimethoxyphenyl) (2-((1-hydroxypropan-2-yl)amino)ethyl)amino)-3-(1-methyl-1H-pyrazol-4-yl)-4H-pyrido [1,2-a]pyrimidin-4-one] the activity at 1 µM [1] was 107%, the activity at 1 µM [2] was 66% and the activity at 1 µM [3] was 104%. The activity at 1 µM [4] was 112%, the activity at 1 µM [5] was 100% and the activity at 1 µM [6] was 94%. It also gave an activity at 1 µM [7] of 29%, an activity at 1 µM [8] of 86% and an activity at 1 µM [9] of 134%. It also gave an activity at 1 µM [10] of 94%, an activity at 1 µM [11] of 60% and an activity at 1 µM [12] of 100%. The activity at 1 µM [13] was 96%, the activity at 1 µM [14] was 93% and the activity at 1 µM [15] was 108%. For the same compound, the activity at 1 µM [16] was 85%, the activity at 1 µM [17] was 87% and the activity at 1 µM [18] was 86%. It also gave an activity at 1 µM [19] of 98%, an activity at 1 µM [20] of 98% and an activity at 1 µM [21] of 97%. It also gave an activity at 1 µM [22] of 93%, an activity at 1 µM [23] of 104% and an activity at 1 µM [24] of 123%. It also gave an activity at 1 µM [25] of 109%, an activity at 1 µM [26] of 94% and an activity at 1 µM [27] of 105%. The activity at 1 µM [28] was 104%, the activity at 1 µM [29] was 96% and the pIC50 [30] was 8.05 and 8.04. For the same compound, the pIC50 [31] was 8.34, the pIC50 [32] was 7.58 and the pIC50 [33] was 7.39.
